Key:
[1] = Stability in simulated gastric fluid; assay type: in vitro ADME; settings: 2 μM peptidomimetic, simulated gastric fluid pH 1.5, 37° C.; for half-life at 2 μM: read-out: half-life (t1/2) when incubated with simulated gastric fluid
Method: (§1) Reactions were terminated by the addition of TFA/H2O (15 mL, 10% (v/v)). […] The column was equilibrated with TFA/H20, at a flow rate of 1 mL/min.

[2] = Stability in simulated intestinal fluid; assay type: in vitro ADME; settings: 2 μM peptidomimetic, simulated intestinal fluid pH 7.5, 37° C.; for half-life at 2 μM: read-out: half-life (t1/2) when incubated with simulated intestinal fluid
Method: as §1

human glucagon receptor = biological target: T1, human glucagon receptor (Homo sapiens, UniProt P47871); assay: In vitro human glucagon antagonist activity (inhibition of cAMP production) in CHO/human glucagon R cells; assay type: cell-based; settings: with saturated concentration of glucagon peptide
T1 construct: The full-length cDNA was cloned in pcDNA3.1 (Invitrogen); expressed in transfected cells

[3] = system: RIN5F (Rat Insulinoma) cells; assay: In vitro glucose-dependent insulin secretion (RIN5F cell assay screening protocol); assay type: cell-based; settings: 16.7 mM glucose load
[4] = Stability in human plasma; assay type: in vitro ADME; settings: 2 μM peptidomimetic, pooled human plasma, 37° C.; for half-life at 2 μM: pH 7.8, read-out: half-life (t1/2) when incubated with human plasma
Method: as §1

DPP IV = DPP IV (Homo sapiens, UniProt P27487); assay: Stability against DPP IV enzyme; assay type: in vitro ADME; settings: 37° C.; for % degradation of peptidomimetics in 24 h when incubated with DPP-IV enzyme: 2 μM peptidomimetic; for half-life at 2 μM: DPP IV enzyme, pH 7.8, 2 μM peptidomimetic, read-out: half-life (t1/2) when incubated with DPP-IV enzyme
Method: as §1

[5] = Stability in liver microsomes; assay type: in vitro ADME; settings: 2 μM peptidomimetic, human liver microsomes, 37° C.; for half-life at 2 μM: pH 7.8, read-out: half-life (t1/2) when incubated with liver microsomes
Method: as §1

Human GLP-1 receptor = biological target: T2, Human GLP-1 receptor (Homo sapiens, UniProt P43220); assay: In vitro Human GLP-1 R agonist activity (cyclic AMP determination) in CHO/human GLP1R cells; assay type: cell-based
T2 construct: The full-length cDNA was cloned in pcDNA3.1(+); expressed in transfected cells
T2 sequence (P43220 24-463): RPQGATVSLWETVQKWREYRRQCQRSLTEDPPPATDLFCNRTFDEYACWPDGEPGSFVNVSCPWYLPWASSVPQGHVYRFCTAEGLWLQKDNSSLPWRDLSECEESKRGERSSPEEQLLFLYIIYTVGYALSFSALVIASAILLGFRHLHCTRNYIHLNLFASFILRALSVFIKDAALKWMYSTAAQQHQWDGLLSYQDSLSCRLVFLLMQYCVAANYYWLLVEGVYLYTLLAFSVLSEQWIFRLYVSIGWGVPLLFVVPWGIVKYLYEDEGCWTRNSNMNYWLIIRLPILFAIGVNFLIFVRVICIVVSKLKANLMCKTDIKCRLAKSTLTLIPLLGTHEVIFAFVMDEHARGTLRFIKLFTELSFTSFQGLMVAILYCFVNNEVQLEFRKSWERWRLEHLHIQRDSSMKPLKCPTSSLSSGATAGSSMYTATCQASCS

Sequence of DPP IV (P27487 whole entry, species assumed): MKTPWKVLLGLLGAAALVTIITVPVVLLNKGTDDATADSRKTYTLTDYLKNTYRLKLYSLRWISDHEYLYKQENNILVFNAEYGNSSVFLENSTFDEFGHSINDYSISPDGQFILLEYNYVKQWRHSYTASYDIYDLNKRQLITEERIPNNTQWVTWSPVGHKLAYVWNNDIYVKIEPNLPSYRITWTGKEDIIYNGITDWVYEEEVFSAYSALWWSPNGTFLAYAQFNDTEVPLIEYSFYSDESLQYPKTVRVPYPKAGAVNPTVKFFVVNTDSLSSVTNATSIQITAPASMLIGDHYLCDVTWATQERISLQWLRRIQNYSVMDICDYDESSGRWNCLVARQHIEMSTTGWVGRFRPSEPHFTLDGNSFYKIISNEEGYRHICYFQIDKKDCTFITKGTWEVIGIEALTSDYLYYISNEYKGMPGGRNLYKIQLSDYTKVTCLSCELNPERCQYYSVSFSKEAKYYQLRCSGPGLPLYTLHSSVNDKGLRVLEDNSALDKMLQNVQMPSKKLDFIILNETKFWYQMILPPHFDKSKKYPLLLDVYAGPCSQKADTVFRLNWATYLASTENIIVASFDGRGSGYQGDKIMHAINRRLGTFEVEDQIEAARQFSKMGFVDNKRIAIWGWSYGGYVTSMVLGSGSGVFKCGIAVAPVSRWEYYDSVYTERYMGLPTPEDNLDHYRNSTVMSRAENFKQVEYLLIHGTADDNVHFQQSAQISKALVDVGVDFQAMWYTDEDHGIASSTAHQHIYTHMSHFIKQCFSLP
T1 sequence (P47871 26-477): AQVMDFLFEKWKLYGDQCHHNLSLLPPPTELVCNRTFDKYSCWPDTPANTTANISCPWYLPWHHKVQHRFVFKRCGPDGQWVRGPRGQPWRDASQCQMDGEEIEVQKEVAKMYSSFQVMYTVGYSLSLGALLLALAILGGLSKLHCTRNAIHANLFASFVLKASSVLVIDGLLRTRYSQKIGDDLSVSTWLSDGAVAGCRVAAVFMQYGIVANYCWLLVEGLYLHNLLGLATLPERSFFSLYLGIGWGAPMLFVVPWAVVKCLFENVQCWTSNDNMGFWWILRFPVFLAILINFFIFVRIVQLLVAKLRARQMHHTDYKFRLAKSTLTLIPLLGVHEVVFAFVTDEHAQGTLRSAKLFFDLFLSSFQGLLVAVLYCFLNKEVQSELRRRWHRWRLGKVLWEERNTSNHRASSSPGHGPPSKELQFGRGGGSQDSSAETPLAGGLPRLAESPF

Row | Compound | % degradation of peptidomimetics in 24 h when incubated with simulated gastric fluid [1] [%] | half-life at 2 μM [1] [h] | % degradation of peptidomimetics in 24 h when incubated with simulated intestinal fluid [2] | half-life at 2 μM [2] [h] | Insulin secretion ([3]; 0.1 nM test compd.) [pg/µg/h] | Insulin secretion ([3]; 1 nM test compd.) [pg/µg/h] | Insulin secretion ([3]; 10 nM test compd.) [pg/µg/h] | % degradation of peptidomimetics in 24 h when incubated with human plasma [4] [%] | half-life at 2 μM [4] [h] | % degradation of peptidomimetics in 24 h when incubated with DPP-IV enzyme (DPP IV) [%] | half-life at 2 μM (DPP IV) [h] | % degradation of peptidomimetics in 24 h when incubated with liver microsomes [5] [%] | half-life at 2 μM [5] [h] | Human GLP-1 R activity (cAMP release), % activity with respect to control (Human GLP-1 receptor; 1 nM test compound) [%] | Human GLP-1 R activity (cAMP release), % activity with respect to control (Human GLP-1 receptor; 10 nM test compound) [%] | Human GLP-1 R activity (cAMP release), % activity with respect to control (Human GLP-1 receptor; 100 nM test compound) [%] | Human GLP-1 R activity (cAMP release), % activity with respect to control (Human GLP-1 receptor; 1 μM test compound) [%] | Human GLP-1 R activity (cAMP release), % activity with respect to control (Human GLP-1 receptor; 10 μM test compound) [%] | half-life (t1/2) when incubated with simulated gastric fluid [1] | half-life (t1/2) when incubated with simulated intestinal fluid [2] | other results
1 | CCc1cc(OC)ccc1-c1ccc(CC(CNC(CCCc2ccccc2F)C(N)=O)NC[C@H](CC(=O)O)NC(=O)[C@H](CO)NC(=O)[C@@H](NC(=O)C(C)(Cc2ccccc2F)NC(=O)[C@@H](NC(=O)CNC(=O)[C@H](CCC(N)=O)NC(=O)C(C)(C)NC(=O)[C@H](Cc2c[nH]cn2)NC(=O)OC)[C@H](C)O)[C@H](C)O)cc1 (single isomer, unassigned) [compound 200] | 52 | 4 | 00% | > 24 | 16.5 ± 0.12 | 22.7 ± 0.17 | 36.5 ± 0.05 | 00 | > 24 | 00 | > 24 | 81 | 2 | 55 ± 0.16 | 88 ± 0.13 | 92 ± 0.11 | 99 ± 0.07 | 99 ± 0.09 |  |  | Human Glucagon receptor antagonistic activity shown as inhibition of cAMP production of Glucagon peptide (human glucagon receptor; 1 nM test compound): 10 ± 0.16 pmol/ml/μg prt; Human Glucagon receptor antagonistic activity shown as inhibition of cAMP production of Glucagon peptide (human glucagon receptor; 10 nM test compound): 8 ± 0.12 pmol/ml/μg prt; Human Glucagon receptor antagonistic activity shown as inhibition of cAMP production of Glucagon peptide (human glucagon receptor; 100 nM test compound): 6 ± 0.14 pmol/ml/μg prt; Human Glucagon receptor antagonistic activity shown as inhibition of cAMP production of Glucagon peptide (human glucagon receptor; 1 μM test compound): 4 ± 0.15 pmol/ml/μg prt; Human Glucagon receptor antagonistic activity shown as inhibition of cAMP production of Glucagon peptide (human glucagon receptor; 10 μM test compound): 1 ± 0.12 pmol/ml/μg prt
2 | CCc1cc(OC)ccc1-c1ccc(CC(NC(=O)[C@H](CC(=O)O)NC(=O)[C@H](CO)NC(=O)[C@@H](NC(=O)[C@H](Cc2ccccc2)NC(=O)[C@@H](NC(=O)CNC(=O)[C@H](CCC(N)=O)NC(=O)[C@H](CO)NC(=O)[C@@H](N)Cc2c[nH]cn2)[C@@H](C)O)[C@@H](C)O)C(=O)NC(CCCc2ccccc2C(F)(F)F)C(N)=O)cc1 (single isomer, unassigned) [compound 47] | 12 |  | 55% |  | 13.1 ± 0.11 | 14.9 ± 0.17 | 28.8 ± 0.44 | 78 | 8 | 76 | 9 | 79 | 1 | 55 ± 0.16 | 89 ± 0.05 | 93 ± 0.09 | 99 ± 0.02 | 99 ± 0.04 | (8) h | (6) h | 
3 | CCc1cc(OC)ccc1-c1ccc(CC(NC(=O)[C@H](CC(=O)O)NC(=O)[C@H](CO)NC(=O)[C@@H](NC(=O)C(C)(Cc2ccccc2)NC(=O)[C@@H](NC(=O)CNC(=O)[C@H](CC(C(F)(F)F)C(F)(F)F)NC(=O)C(C)(C)NC(=O)[C@@H](N)Cc2c[nH]cn2)[C@@H](C)O)[C@@H](C)O)C(=O)NC(CCCc2ccccc2)C(N)=O)cc1 (single isomer, unassigned) [compound 230] | 100 | 0.5 | 100 ) % | 0.5 | 12.1 ± 0.51 | 14.1 ± 0.19 | 28.1 ± 0.29 | 70 |  | 86 |  | 100 | 0.5 | 99 ± 0.12 | 99 ± 0.08 | 99 ± 0.11 | 99 ± 0.12 | 99 ± 0.16 |  |  | half-life (t1/2) when incubated with human plasma [4]: (9) h
4 | CCc1cc(OC)ccc1-c1ccc(CC(NC(=O)[C@H](CC(=O)O)NC(=O)[C@H](CO)NC(=O)[C@@H](NC(=O)C(C)(Cc2ccccc2F)NC(=O)[C@@H](NC(=O)CNC(=O)[C@H](CC(C(F)(F)F)C(F)(F)F)NC(=O)C(C)(C)NC(=O)[C@H](Cc2c[nH]cn2)NC(C)=O)[C@@H](C)O)[C@@H](C)O)C(=O)NC(CCCc2ccccc2)C(N)=O)cc1 (single isomer, unassigned) [compound 210] | 100 | 0.5 | 100% | 0.5 | 11.9 ± 0.17 | 14.2 ± 0.13 | 27.6 ± 0.16 | 77 |  | 75 |  | 100 | 0.5 | 46 ± 0.022 | 85 ± 0.46 | 90 ± 0.41 | 99 ± 0.66 | 99 ± 0.03 |  |  | half-life (t1/2) when incubated with human plasma [4]: (9) h
5 | CCc1cc(OC)ccc1-c1ccc(CC(NC(=O)[C@H](CC(=O)O)NC(=O)[C@H](CO)NC(=O)[C@@H](NC(=O)[C@H](Cc2ccccc2)NC(=O)[C@@H](NC(=O)CNC(=O)[C@H](CCC(N)=O)NC(=O)[C@H](CO)NC(=O)[C@@H](N)Cc2c[nH]cn2)[C@@H](C)O)[C@@H](C)O)C(=O)NC(CCCc2ccccc2Cl)C(N)=O)cc1 (single isomer, unassigned) [compound 50] | 13 |  | 50% |  | 15.4 ± 0.14 | 21.2 ± 0.18 | 35.6 ± 0.17 | 80 | 8 | 77 | 9 | 82 | 1 | 60 ± 0.12 | 92 ± 0.15 | 98 ± 0.18 | 99 ± 0.03 | 99 ± 0.09 | (8) h | (6) h | 

Reference: US8883963B2 (Cadila Healthcare Limited, priority 2007, dated 2014)
